Read-outs that look alike come from different tables or passages of the source. Positions of bridges follow the written chain, without caps; N, C: chain ends. Non-standard residues stand in square brackets, D forms with d. Residues, ends and D or L forms follow the SMILES beside them. Phe(3,4-(OMe)2) = COc1ccc(C[C@H](N)C(=O)O)cc1OC; 2Nal = N[C@@H](Cc1ccc2ccccc2c1)C(=O)O; Hyp = O=C(O)[C@@H]1C[C@@H](O)CN1; Pen = CC(C)(S)[C@H](N)C(=O)O; Thz = O=C(O)[C@@H]1CSCN1; Aze = O=C(O)[C@@H]1CCN1
What was measured:
human MC1R = molecular target: T1, human MC1R (Homo sapiens, UniProt Q01726); experiment: Functional cAMP assay (CisBio HTRF) in BHK cells expressing human MC1R; type: cell-based; details: BHK cells expressing human MC1R; '>' = highest dose used with no response; read-out: MC1R cAMP EC50
T1 construct: expressed in transfected cells
T1 sequence (Q01726 whole entry): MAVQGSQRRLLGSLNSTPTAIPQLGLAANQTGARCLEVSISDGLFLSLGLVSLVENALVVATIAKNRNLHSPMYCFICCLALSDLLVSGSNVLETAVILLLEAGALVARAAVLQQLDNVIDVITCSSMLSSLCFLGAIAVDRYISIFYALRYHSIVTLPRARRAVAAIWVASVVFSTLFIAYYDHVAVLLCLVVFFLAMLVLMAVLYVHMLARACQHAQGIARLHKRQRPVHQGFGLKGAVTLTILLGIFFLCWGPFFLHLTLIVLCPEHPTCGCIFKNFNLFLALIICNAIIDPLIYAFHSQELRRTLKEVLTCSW
Description: In order to assess the potency of the compounds on human MC1R and human MC4R cAMP signalling was measured.
cAMP induction was measured by c-AMPdynamic2 assay, HTRF 62AM4PEC system from CisBio for the human MC1R and human MC4R according to the protocol provided by the vendor. BHK cells expressing the human MC1 or MC4 receptor were generated by stable transfection with expression vectors encoding the cDNA of either MC1R or MC4R.
In details; 25 μl compound—or standard solution were added in the respective wells. Compound was reconstituted in buffer (DMEM w/o phenol red, 10 mM
Hepes, lx Glutamine, 0.1% OV-albumin1, 1 mM IBMX) and serially diluted starting at 2 μM, 10-fold seven times. Dilutions were carried out in the same aforementioned buffer to the desired working concentration ranges (2× higher than the final concentration). 25 μl cell solution was then added and allowed to incubate for 30 min while lightly shaking, at 25° C. […] The provided components for the assay were reconstituted according to the CisBio assay protocol “3.1 supplied reagents and preparation procedure” in MilliQ purification system H2O and diluted 1:20 in lysis buffer. 25 μl cAMP-d2 and 25 μl Cryptate conjugate were added to all wells.
Plates were centrifuged at 1500 rpm for 30 sec and incubated for 1 h, lightly shaking, at 25° C. in a hotel stacker. The plates were read on Mithras LB 940 provided by Berthold Technologies The data were analysed by non-linear regression analysis of binding curves, using the Windows™ program GraphPad™ Prism (GraphPad Software, USA).
The latter is used when no full curve can be obtained in the concentration ranges indicated above.

human MC4R [1] = molecular target: T2, human MC4R (Homo sapiens, UniProt P32245); experiment: Functional cAMP assay (CisBio HTRF) in BHK cells expressing human MC4R; type: cell-based; details: for MC1R/MC4R cAMP EC50 ratio: MC1R cAMP EC50 divided by MC4R cAMP EC50
T2 construct: expressed in transfected cells
T2 sequence (P32245 whole entry): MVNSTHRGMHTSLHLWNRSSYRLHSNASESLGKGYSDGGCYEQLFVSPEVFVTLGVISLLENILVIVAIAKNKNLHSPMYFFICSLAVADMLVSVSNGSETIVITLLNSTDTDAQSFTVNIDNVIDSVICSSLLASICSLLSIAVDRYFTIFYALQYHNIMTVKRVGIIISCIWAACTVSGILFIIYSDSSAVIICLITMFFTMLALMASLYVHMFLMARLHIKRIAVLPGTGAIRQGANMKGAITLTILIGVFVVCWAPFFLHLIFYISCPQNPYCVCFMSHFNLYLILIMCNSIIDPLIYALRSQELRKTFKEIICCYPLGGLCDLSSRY
Outline: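 Compound working solutions, 10-fold dilutions from 2 μM at twice final strength, in buffer containing 1 mM IBMX, were incubated 30 min at 25 °C with BHK cells stably carrying human MC4R or MC1R. Accumulated cAMP was then detected by competitive HTRF after 1 h at 25 °C and fitted by non-linear regression.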

human MC4R [2] = molecular target: T2, human MC4R; experiment: 125NDP-α-MSH competitive binding to membranes of BHK cells expressing human MC4 receptor (filtration assay)
Outline: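 Displacement of ^125NDP-α-MSH (apx. […] final) was measured by filtration after 2 h at 25 °C, using diluted membranes of stably transfected BHK cells in pH 7.0 HEPES buffer. Compounds spanned 1 μM to 0.001 nM; binding curves were analysed by non-linear regression.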

[3] = BHK cells expressing human MC4R, '>' = highest dose used with no response, read-out: MC4R cAMP EC50
[4] = human MC4R, BHK cell membranes, 125NDP-α-MSH radioligand, read-out: MC4R binding Ki

Row | SMILES | EC50 (human MC1R) [nM] | EC50 (human MC4R [1]; [3]) [nM] | MC1R/MC4R cAMP EC50 ratio (human MC4R [1]) | Ki (human MC4R [2]; [4]) [nM] | EC50 (human MC4R [1]) [nM] | Ki (human MC4R [2]) [nM]
1 | C[C@@H]1NC(=O)[C@@H]2CSSC[C@H](NC(=O)[C@H](Cc3c[nH]c4ccccc34)NC(=O)[C@@H]3C[C@@H](NC(=N)N)CN3C(=O)[C@@H](Cc3ccccc3)NC(=O)[C@H](Cc3c[nH]cn3)NC1=O)C(=O)N[C@@H](C)C(=O)N[C@@H](Cc1c[nH]cn1)C(=O)N[C@H](Cc1ccccc1)C(=O)N1C[C@H](NC(=N)N)C[C@H]1C(=O)N[C@@H](Cc1c[nH]c3ccccc13)C(=O)N2 [Chem. 28, c[c[Cys-Ala-His-D-Phe-4trans- GuaPro-Trp-Cys]-Ala-His-D-Phe- 4trans-GuaPro-Trp]] | > 100 | – | – | – | – | –
2 | C[C@@H]1NC(=O)[C@@H]2CSSC[C@H](NC(=O)[C@H](Cc3c[nH]c4ccccc34)NC(=O)[C@@H]3C[C@H](NC(=N)N)CN3C(=O)[C@@H](Cc3ccccc3)NC(=O)[C@H](Cc3c[nH]cn3)NC1=O)C(=O)N[C@@H](C)C(=O)N[C@@H](Cc1c[nH]cn1)C(=O)N[C@H](Cc1ccccc1)C(=O)N1C[C@@H](NC(=N)N)C[C@H]1C(=O)N[C@@H](Cc1c[nH]c3ccccc13)C(=O)N2 [Chem. 29, c[c[Cys-Ala-His-D-Phe-4cis-GuaPro- Trp-Cys]-Ala-His-D-Phe-4cis-GuaPro- Trp]] | > 100 | – | – | – | – | –
3 | C[C@@H]1NC(=O)[C@@H]2CSSC[C@H](NC(=O)[C@H](CCCNC(=N)N)NC(=O)[C@H](CCCCN)NC(=O)[C@H](CCCCN)NC(=O)[C@H](CCCCN)NC1=O)C(=O)N[C@@H](CCCCN)C(=O)N[C@@H](Cc1c[nH]cn1)C(=O)N[C@H](Cc1ccccc1)C(=O)N[C@@H](Cc1c[nH]cn1)C(=O)N[C@@H](Cc1c[nH]c3ccccc13)C(=O)N2 [Chem. 78, c[c[Cys-Lys-His-D-Phe-His-Trp-Cys]- Ala-Lys-Lys-Lys-Arg]] (cyclo(AKKKRCKH[dF]HWC); disulfide 6-12) | – | 0.04 | 95 | 0.02 | – | –
4 | C[C@@H]1NC(=O)[C@@H]2CSSC[C@H](NC(=O)[C@H](Cc3ccc4ccccc4c3)NC(=O)[C@H](CCCNC(=N)N)NC(=O)[C@@H](Cc3ccccc3)NC(=O)[C@H](Cc3c[nH]cn3)NC1=O)C(=O)N[C@@H](C)C(=O)N[C@@H](CCCCN)C(=O)N[C@@H](CCCCN)C(=O)N[C@@H](CCCCN)C(=O)N[C@@H](Cc1c[nH]c3ccccc13)C(=O)N2 [Chem. 79, c[c[Cys-Ala-His-D-Phe-Arg-2-Nal- Cys]-Ala-Lys-Lys-Lys-Trp]] (cyclo([2Nal]CAKKKWCAH[dF]R); disulfide 2-8) | – | 0.02 | 58 | 0.03 | – | –
5 | C[C@@H]1NC(=O)[C@@H]2CSSC[C@H](NC(=O)[C@H](Cc3c[nH]c4ccccc34)NC(=O)[C@H](CCCCN)NC(=O)[C@H](CCCCN)NC(=O)[C@H](CCCCN)NC1=O)C(=O)N1CC[C@H]1C(=O)N[C@@H](Cc1c[nH]cn1)C(=O)N[C@H](Cc1ccccc1)C(=O)N[C@@H](Cc1c[nH]cn1)C(=O)N[C@@H](Cc1c[nH]c3ccccc13)C(=O)N2 [Chem. 82, c[c[Cys-AZE-His-D-Phe-His-Trp-Cys]- Ala-Lys-Lys-Lys-Trp]] (cyclo(AKKKWC[Aze]H[dF]HWC); disulfide 6-12) | – | – | 178 | 0.07 | – | –
6 | C[C@@H]1NC(=O)[C@@H]2CSSC[C@H](NC(=O)[C@H](Cc3c[nH]c4ccccc34)NC(=O)[C@H](CCCCN)NC(=O)[C@H](CCCCN)NC(=O)[C@H](CCCCN)NC1=O)C(=O)N[C@H](CCCCN)C(=O)N[C@@H](Cc1c[nH]cn1)C(=O)N[C@H](Cc1ccccc1)C(=O)N[C@@H](Cc1c[nH]cn1)C(=O)N[C@@H](Cc1c[nH]c3ccccc13)C(=O)N2 [Chem. 84, c[c[Cys-D-Lys-His-D-Phe-His-Trp- Cys]-Ala-Lys-Lys-Lys-Trp]] (cyclo(AKKKWC[dK]H[dF]HWC); disulfide 6-12) | – | 0.59 | 74 | 0.19 | – | –
7 | NCCCC[C@H]1NC(=O)[C@@H]2CSSC[C@H](NC(=O)[C@H](Cc3c[nH]c4ccccc34)NC(=O)[C@H](Cc3c[nH]cn3)NC(=O)[C@@H](Cc3ccccc3)NC(=O)[C@H](Cc3c[nH]cn3)NC1=O)C(=O)N[C@H](CCCCN)C(=O)N[C@@H](Cc1c[nH]cn1)C(=O)N[C@H](Cc1ccccc1)C(=O)N[C@@H](Cc1c[nH]cn1)C(=O)N[C@@H](Cc1c[nH]c3ccccc13)C(=O)N2 [Chem. 86, c[c[Cys-D-Lys-His-D-Phe-His-Trp- Cys]-D-Lys-His-D-Phe-His-Trp]] (cyclo(C[dK]H[dF]HWC[dK]H[dF]HW); disulfide 1-7) | – | 14.5 | 10 | 9.6 | – | –
8 | C[C@@H]1NC(=O)[C@@H]2CSSC(C)(C)[C@H](NC(=O)[C@H](CCCNC(=N)N)NC(=O)[C@H](CCCCN)NC(=O)[C@H](CCCCN)NC(=O)[C@H](CCCCN)NC1=O)C(=O)N1CCC[C@H]1C(=O)N[C@@H](Cc1c[nH]cn1)C(=O)N[C@H](Cc1ccccc1)C(=O)N[C@@H](Cc1c[nH]cn1)C(=O)N[C@@H](Cc1c[nH]c3ccccc13)C(=O)N2 [Chem. 92, c[c[Pen-Pro-His-D-Phe-His-Trp-Cys]- Ala-Lys-Lys-Lys-Arg]] (cyclo(AKKKR[Pen]PH[dF]HWC); disulfide 6-12) | – | 0.13 | 362 | 0.04 | – | –
9 | C[C@@H]1NC(=O)[C@H]2NC(=O)[C@H](Cc3c[nH]c4ccccc34)NC(=O)[C@H](Cc3c[nH]cn3)NC(=O)[C@@H](Cc3ccccc3)NC(=O)[C@H](Cc3c[nH]cn3)NC(=O)[C@@H]3CCCN3C(=O)[C@H](CSSC2(C)C)NC(=O)[C@H](CCCNC(=N)N)NC(=O)[C@H](CCCCN)NC(=O)[C@H](CCCCN)NC(=O)[C@H](CCCCN)NC1=O [Chem. 93, c[c[Cys-Pro-His-D-Phe-His-Trp-Pen]- Ala-Lys-Lys-Lys-Arg]] (cyclo(AKKKRCPH[dF]HW[Pen]); disulfide 6-12) | – | 0.04 | 456 | 0.03 | – | –
10 | COc1ccc(C[C@@H]2NC(=O)[C@H](CCCNC(=N)N)NC(=O)[C@@H](Cc3ccccc3)NC(=O)[C@H](Cc3c[nH]cn3)NC(=O)[C@@H]3CCCN3C(=O)[C@@H]3CSSC[C@H](NC2=O)C(=O)N[C@@H](C)C(=O)N[C@@H](CCCCN)C(=O)N[C@@H](CCCCN)C(=O)N[C@@H](CCCCN)C(=O)N[C@@H](CCCNC(=N)N)C(=O)N3)cc1OC [Chem. 94, c[c[Cys-Pro-His-D-Phe-Arg-3,4- DiMeO-Phe-Cys]-Ala-Lys-Lys-Lys- Arg]] (cyclo(AKKKRCPH[dF]R[Phe(3,4-(OMe)2)]C); disulfide 6-12) | – | – | 26 | 0.25 | – | –
11 | C[C@@H]1NC(=O)[C@@H]2CSSC[C@H](NC(=O)[C@H](CCCNC(=N)N)NC(=O)[C@H](Cc3c[nH]cn3)NC(=O)[C@H](CCCCN)NC(=O)[C@H](CCCCN)NC1=O)C(=O)N1CCC[C@H]1C(=O)N[C@@H](Cc1c[nH]cn1)C(=O)N[C@H](Cc1ccccc1)C(=O)N[C@@H](Cc1c[nH]cn1)C(=O)N[C@@H](Cc1c[nH]c3ccccc13)C(=O)N2 [Chem. 95, c[c[Cys-Pro-His-D-Phe-His-Trp-Cys]- Ala-Lys-Lys-His-Arg]] (cyclo(AKKHRCPH[dF]HWC); disulfide 6-12) | – | 0.22 | 399 | 0.07 | – | –
12 | C[C@@H]1NC(=O)[C@@H]2CSSC[C@H](NC(=O)[C@H](CCCNC(=N)N)NC(=O)[C@H](CCCCN)NC(=O)[C@H](CCCCN)NC(=O)[C@H](CCCCN)NC1=O)C(=O)N1C[C@H](O)C[C@H]1C(=O)N[C@@H](Cc1c[nH]cn1)C(=O)N[C@H](Cc1ccccc1)C(=O)N[C@@H](Cc1c[nH]cn1)C(=O)N[C@@H](Cc1c[nH]c3ccccc13)C(=O)N2 [Chem. 97, c[c[Cys-Hyp-His-D-Phe-His-Trp-Cys]- Ala-Lys-Lys-Lys-Arg]] (cyclo(AKKKRC[Hyp]H[dF]HWC); disulfide 6-12) | – | 0.19 | 122 | 0.05 | – | –
13 | C[C@@H]1NC(=O)[C@@H]2CSSC[C@H](NC(=O)[C@H](CCCNC(=N)N)NC(=O)[C@H](CCCCN)NC(=O)[C@H](CCCCN)NC(=O)[C@H](CCCCN)NC1=O)C(=O)N1CSC[C@H]1C(=O)N[C@@H](Cc1c[nH]cn1)C(=O)N[C@H](Cc1ccccc1)C(=O)N[C@@H](Cc1c[nH]cn1)C(=O)N[C@@H](Cc1c[nH]c3ccccc13)C(=O)N2 [Chem. 100, c[c[Cys-THAZ-His-D-Phe-His-Trp- Cys]-Ala-Lys-Lys-Lys-Arg]] (cyclo(AKKKRC[Thz]H[dF]HWC); disulfide 6-12) | – | – | 925 | – | 0.02 | 0.04

Reference: patent US20200223889A1, “Bicyclic Compounds Capable of Binding to Melanocortin 4 Receptor” (Novo Nordisk A/S, priority 2017, published 2020)
